pIC50: −log10 of the molar value.

The target of the first assay is Nav 1.7 (Homo sapiens (Human), UniProt Q15858). In words: Nav 1.7 IWQ in vitro assay (IonWorks Quattro population patch-clamp). The class given is cell-based. The following applies: 293 cells stably transfected with Nav 1.7; first part of table; read-out: Nav 1.7 IWQ IC50. As to the method: Nav 1.7 or Nav 1.5 IWQ In Vitro Assay
Sequence of Nav 1.7 (Q15858 whole entry): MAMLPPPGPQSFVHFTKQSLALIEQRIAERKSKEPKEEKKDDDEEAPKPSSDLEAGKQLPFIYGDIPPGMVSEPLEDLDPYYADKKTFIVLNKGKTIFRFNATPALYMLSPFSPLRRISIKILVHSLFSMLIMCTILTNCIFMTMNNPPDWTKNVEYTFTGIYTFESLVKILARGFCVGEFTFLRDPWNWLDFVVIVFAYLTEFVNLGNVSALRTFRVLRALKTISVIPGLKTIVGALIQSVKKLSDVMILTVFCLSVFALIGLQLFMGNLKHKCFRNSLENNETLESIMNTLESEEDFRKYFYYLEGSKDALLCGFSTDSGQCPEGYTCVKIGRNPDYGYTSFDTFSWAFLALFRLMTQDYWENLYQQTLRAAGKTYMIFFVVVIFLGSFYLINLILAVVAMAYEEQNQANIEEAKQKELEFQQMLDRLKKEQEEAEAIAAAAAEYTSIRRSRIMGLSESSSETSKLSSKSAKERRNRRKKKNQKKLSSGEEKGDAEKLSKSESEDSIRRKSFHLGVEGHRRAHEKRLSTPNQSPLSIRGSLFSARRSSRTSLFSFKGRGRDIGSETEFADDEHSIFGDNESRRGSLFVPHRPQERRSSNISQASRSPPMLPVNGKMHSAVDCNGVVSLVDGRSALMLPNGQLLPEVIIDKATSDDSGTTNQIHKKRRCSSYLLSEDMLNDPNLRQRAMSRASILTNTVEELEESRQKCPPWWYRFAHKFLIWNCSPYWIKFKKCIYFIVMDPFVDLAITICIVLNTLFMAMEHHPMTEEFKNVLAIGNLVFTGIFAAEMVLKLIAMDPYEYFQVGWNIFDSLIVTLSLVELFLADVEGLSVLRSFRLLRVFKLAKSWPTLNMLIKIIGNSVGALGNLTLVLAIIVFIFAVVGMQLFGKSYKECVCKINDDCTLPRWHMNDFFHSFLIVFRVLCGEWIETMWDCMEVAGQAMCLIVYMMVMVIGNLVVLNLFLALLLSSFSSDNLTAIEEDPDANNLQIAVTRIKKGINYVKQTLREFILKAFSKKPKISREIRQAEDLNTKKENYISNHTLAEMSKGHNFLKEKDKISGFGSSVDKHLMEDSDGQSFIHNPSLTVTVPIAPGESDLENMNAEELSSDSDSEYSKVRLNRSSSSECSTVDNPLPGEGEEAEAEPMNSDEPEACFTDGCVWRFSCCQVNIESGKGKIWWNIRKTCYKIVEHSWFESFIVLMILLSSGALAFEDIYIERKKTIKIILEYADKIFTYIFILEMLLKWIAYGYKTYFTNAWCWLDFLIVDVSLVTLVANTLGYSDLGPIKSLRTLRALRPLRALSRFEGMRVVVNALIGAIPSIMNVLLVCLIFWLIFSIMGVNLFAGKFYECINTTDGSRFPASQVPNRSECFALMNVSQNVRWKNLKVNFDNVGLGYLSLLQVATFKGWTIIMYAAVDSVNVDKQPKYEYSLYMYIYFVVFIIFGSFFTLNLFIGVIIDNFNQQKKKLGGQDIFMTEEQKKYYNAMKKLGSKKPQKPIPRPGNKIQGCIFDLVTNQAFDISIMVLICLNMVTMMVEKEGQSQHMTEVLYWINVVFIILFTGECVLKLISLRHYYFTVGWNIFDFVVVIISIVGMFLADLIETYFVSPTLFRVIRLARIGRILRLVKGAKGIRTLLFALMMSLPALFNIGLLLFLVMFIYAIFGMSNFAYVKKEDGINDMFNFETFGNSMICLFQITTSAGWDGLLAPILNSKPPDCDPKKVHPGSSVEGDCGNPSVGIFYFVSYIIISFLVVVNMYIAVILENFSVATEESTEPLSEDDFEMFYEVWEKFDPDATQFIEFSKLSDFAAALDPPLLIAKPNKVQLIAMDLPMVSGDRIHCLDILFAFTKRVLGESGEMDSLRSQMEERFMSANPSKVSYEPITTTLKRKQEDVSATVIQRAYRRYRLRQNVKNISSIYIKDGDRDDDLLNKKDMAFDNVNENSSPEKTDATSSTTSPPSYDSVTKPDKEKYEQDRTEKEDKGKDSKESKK
293 Cells stably transfected with either Nav 1.7 or Nav 1.5 were recorded in population patch-clamp mode with the IonWorks® Quattro automated electrophysiology system in accordance with the manufacturer's specifications (Molecular Devices, LLC, Sunnyvale, Calif.). Sodium channel currents were measured in response to a train of depolarizations that induced successively greater inactivation.
Cells were then left unclamped for a period of 3 to 8 minutes while a single concentration of test compound was added. Cells were then reclamped and put through the same voltage protocol. Current at the end of the 26th pulse to −20 mV was subtracted from the peak current evoked by the 26th pulse to −20 mV to correct for leak current. Percent block was calculated for each concentration in duplicate, and IC50 curves were fitted to percent block as a function of concentration.
As to `O=S(=O)(Nc1ncns1)c1ccc2c(-c3ccc(C(F)(F)F)cc3-c3cn[nH]c3)cccc2c1` [Example 21], the pIC50 was 7.70.
In the case of `O=S(=O)(Nc1ncns1)c1ccc2c(-c3ccc(C(F)(F)F)cc3O)nccc2c1` [Example 58, 1-(2-HYDROXY-4-(TRIFLUOROMETHYL)PHENYL)-N-(1,2,4-THIADIAZOL-5-YL)ISOQUINOLINE-6-SULFONAMIDE], the pIC50 was 6.22.
The same measure, in the same setting: to `O=S(=O)(Nc1ccncn1)c1ccc2c(-c3ccc(C(F)(F)F)cc3C3=CCNCC3)nccc2c1` [Example 69, N-(PYRIMIDIN-4-YL)-1-(2-(1,2,3,6-TETRAHYDROPYRIDIN-4-YL)-4-(TRIFLUOROMETHYL)PHENYL)ISOQUINOLINE-6-SULFONAMIDE 2,2,2-TRIFLUOROACETATE] belongs 7.22; to `COc1cc(Cl)ccc1-c1cccc2cc(S(=O)(=O)Nc3ccn(CCN(C)C)n3)ccc12` [Example 43], 5.31; to `O=S(=O)(Nc1ncns1)c1ccc2c(-c3ccc(Cl)cc3C(F)(F)F)nccc2c1` [Example 63, 1-(4-CHLORO-2-(TRIFLUOROMETHYL)PHENYL)-N-(1,2,4-THIADIAZOL-5-YL)ISOQUINOLINE-6-SULFONAMIDE], 6.48.
With `Cc1ccc(-c2cccc3cc(S(=O)(=O)Nc4ncns4)ccc23)c(Cl)c1` [Example 6], the pIC50 is 6.47.
Still for that read-out and setting: to `O=S(=O)(Nc1nccs1)c1ccc2c(-c3ccc(C(F)(F)F)cc3-c3ccnn3C3CNC3)cccc2c1` [Example 81] belongs 7.40.

The assay is the same for the next values; noted with them: 293 cells stably transfected with Nav 1.7; second part of table; read-out: Nav1.7 IWQ IC50 IP.
For `O=S(=O)(Nc1ccncn1)c1ccc2c(OCCCc3cn[nH]c3C(F)(F)F)nccc2c1` [Example 302, N-(PYRIMIDIN-4-YL)-1-(3-(5-(TRIFLUOROMETHYL)-1H-PYRAZOL-4-YL)PROPOXY)ISOQUINOLINE-6-SULFONAMIDE], the pIC50 was under 5.00.
For `COc1ncc(F)cc1-c1nccc2cc(S(=O)(=O)Nc3ccncn3)ccc12` [Example 166, 1-(5-FLUORO-2-METHOXYPYRIDIN-3-YL)-N-(PYRIMIDIN-4-YL)ISOQUINOLINE-6-SULFONAMIDE], the pIC50 was 5.86.
Regarding `Cn1ncc2cccc(-c3nccc4cc(S(=O)(=O)Nc5ccncn5)ccc34)c21` [Example 306, 1-(1-METHYL-1H-INDAZOL-7-YL)-N-(PYRIMIDIN-4-YL)ISOQUINOLINE-6-SULFONAMIDE], the pIC50 is under 5.00.
The same measure, in the same setting: to `Cn1nc(C(F)(F)F)cc1-c1nccc2cc(S(=O)(=O)Nc3ccncn3)ccc12` [Example 312, 1-(1-METHYL-3-(TRIFLUOROMETHYL)-1H-PYRAZOL-5-YL)-N-(PYRIMIDIN-4-YL)ISOQUINOLINE-6-SULFONAMIDE] belongs under 5.00.

The assay is the same for the next values; noted with them: at […].
Regarding `O=S(=O)(Nc1ccncn1)c1ccc2c(OCCCc3cn[nH]c3C(F)(F)F)nccc2c1` [Example 302, N-(PYRIMIDIN-4-YL)-1-(3-(5-(TRIFLUOROMETHYL)-1H-PYRAZOL-4-YL)PROPOXY)ISOQUINOLINE-6-SULFONAMIDE], the “Nav1.7 Single Point Data IWQ (at […]) (%)” value came to 20%.
As for `COc1cc(C(F)(F)F)ccc1-c1ncnc2cc(S(=O)(=O)NC3=NCCS3)ccc12` [Example 520, N-(4,5-DIHYDROTHIAZOL-2-YL)-4-(2-METHOXY-4-(TRIFLUOROMETHYL)PHENYL)QUINAZOLINE-7-SULFONAMIDE], the “Nav1.7 Single Point Data IWQ (at […]) (%)” value is under 20%.
Same read-out and setting: in the case of `Cc1cnc(OCC2CCC2)c(-c2nccc3cc(S(=O)(=O)Nc4nccs4)ccc23)c1` [Example 381, 1-(2-(CYCLOBUTYLMETHOXY)-5-METHYLPYRIDIN-3-YL)-N-(THIAZOL-2-YL)ISOQUINOLINE-6-SULFONAMIDE] it was 26.5%.
Same read-out and setting: in the case of `Cn1ncc2cccc(-c3nccc4cc(S(=O)(=O)Nc5ccncn5)ccc34)c21` [Example 306, 1-(1-METHYL-1H-INDAZOL-7-YL)-N-(PYRIMIDIN-4-YL)ISOQUINOLINE-6-SULFONAMIDE] it was 35%.
Consider `Cn1nc(C(F)(F)F)cc1-c1nccc2cc(S(=O)(=O)Nc3ccncn3)ccc12` [Example 312, 1-(1-METHYL-3-(TRIFLUOROMETHYL)-1H-PYRAZOL-5-YL)-N-(PYRIMIDIN-4-YL)ISOQUINOLINE-6-SULFONAMIDE], for which the “Nav1.7 Single Point Data IWQ (at […]) (%)” value stood at 47%.
Turning to `O=S(=O)(Nc1nccs1)c1ccc2c(N3CCCC3c3ccccc3)ncnc2c1` (stereo not shown) [Example 537, 4-(2-PHENYLPYRROLIDIN-1-YL)-N-(THIAZOL-2-YL)QUINAZOLINE-7-SULFONAMIDE], the “Nav1.7 Single Point Data IWQ (at […]) (%)” value is 41.2%.
With `O=S(=O)(Nc1ccncn1)c1ccc2c(N3CCCC(c4cccc(F)c4)C3)nccc2c1` (stereo not shown) [Example 402, 1-(3-(3-FLUOROPHENYL)PIPERIDIN-1-YL)-N-(PYRIMIDIN-4-YL)ISOQUINOLINE-6-SULFONAMIDE], the “Nav1.7 Single Point Data IWQ (at […]) (%)” value worked out at 36.4%.

The assay is the same for the next values; noted with them: read-out: Nav 1.7 IWQ percent inhibition at […]; read-out: Nav 1.7 IWQ percent inhibition at 4.9 μM.
As to `COc1cc(Cl)ccc1-c1cccc2cc(S(=O)(=O)Nc3cc(C)on3)ccc12` [Example 44], the inhibition at […] came out at 22.1%.

The term pIC50 denotes −log10 of the IC50, conventionally taken in molar units. Broadly, the inhibition is the relative decrease from the control value, in per cent.
